This is an account of results in patent US10081609B2, “Compounds for inducing proliferation and differentiation of cells, and methods of use thereof” (The Broad Institute, Inc., priority 2013, dated 2018).

The inhibition is the share of the control response that was lost under treatment. A word on the remaining activity: it is the signal under treatment as a percentage of the control signal.

For data set [1], the system named is human primary hepatocytes. Kind of data set: High-throughput liver platform, primary screening: hepatocyte proliferation by automated high-content imaging (hepatocyte nuclei numbers). Type of data set: cell-based. Conditions: primary screening. The procedure:
In order to avoid species-specific differences and cell line mutations, the screen was conducted with human primary hepatocytes. Traditionally, chemical screening on such cells has been hindered by their availability in large quantities as well as their rapid loss of viability and phenotype in vitro. Recent advances in cryopreservation technologies allowed enough primary human cells to be stored for screening; these cells are maintained through co-cultivation with non-parenchymal cells. Co-cultures of primary human hepatocytes with murine embryonic J2-3T3 fibroblasts were recently shown to maintain normal hepatocyte phenotype for weeks. These in vitro platforms consisted of hepatocytes surrounded by a co-planar population of fibroblasts. While sufficient for stabilizing hepatocyte functions in vitro, such platforms may limit normal hepatocyte expansion due to contact inhibition. Thus, for this screen, a sparse population of hepatocytes was co-cultivated on top of a confluent feeder layer of J2-3T3 fibroblasts within 384-well plates (FIG. 1A top). This screening platform stabilized hepatocyte phenotypic functions in vitro (FIG. 1A bottom) and was compatible with two separate high-throughput readouts developed for this screen.
The primary readout detected hepatocyte proliferation via automated high-content imaging. This assay quantified hepatocyte nuclei numbers, using nuclear morphologies to separate the hepatocyte and fibroblast subpopulations that co-exist within the screening platform. When visualized with Hoechst stain, hepatocyte nuclei were smaller and more uniform in texture while fibroblast nuclei were larger and punctated (FIG. 1A bottom). Leveraging this distinction, automated image analyses was developed that utilized machine learning algorithms to classify nuclei types and tabulate hepatocyte nuclei numbers. […] Besides quantifying hepatocyte nuclei that have completed mitosis, the number of nuclei in the process of mitosis were also quantified. Two additional analysis pipelines were built to detect nuclear morphologies consistent with cells undergoing metaphase and anaphase.
FIG. 1B top summarizes the workflow of the screen. Primary screening was done on human primary hepatocytes, preconditioned for seven days by non-parenchymal cells in the screening platform. Upon stabilization in vitro, cultures were treated with the chemical library for 48 hours. All compounds were tested in duplicates, at a single concentration of 15 μM. This single concentration was selected via a pilot screen of ˜2,000 small molecules. All 12,480 small molecules were initially tested on a single donor of cryopreserved hepatocytes (donor a) in order to eliminate noise from donor-to-donor variability. Following compound treatment, media supernatants were collected for functional analyses via ELISA and cultures were fixed in 4% paraformaldehyde for proliferation analyses via imaging.
To identify proliferation hits, three image-based readouts—one each to quantify the number of (1) hepatocyte nuclei in interphase, (2) nuclei in metaphase and (3) nuclei in anaphase—were integrated. z Scores were converted into p values, which were then used to generate ranked lists of compounds based on the efficacy and consistency of effects across the different proliferation readouts. Efficacy was assessed by the product of p values (pprod=pinter×pmeta×pana); consistency was evaluated by the maximum of p values (pmax=max(pinter, pmeta, pana). Compounds were considered proliferation hits if pprod<1×10^−6 and pmax<0.25. Functional hits were selected by an ELISA […]. Compounds with ELISA z>3.0 were eliminated as toxic. 93 compounds met all hit selection criteria, qualifying as Functional Proliferation Hits (FPH); FIG. 1B bottom illustrates the types of compounds that constituted this set of hits.

For data set [2], the system named is human primary hepatocytes. Kind of data set: Expansion of human primary hepatocytes on growth-arrested J2-3T3 feeder layer in 12-well plates (imaging, cell counting, FACS, biochemical assays). Type of data set: cell-based. As to the method:
Culture media were collected and frozen at −20° C. until analysis. Albumin content was measured through sandwich ELISA assays (MP Biomedicals, Fitzgerald, Bethyl Laboratories) using horseradish peroxidase detection and 3,3′,5,5′-tetramethylbenzidine (TMB, Fitzgerald Industries) as a substrate. Urea concentration was determined colorimetrically using diacetylmonoxime with acid and heat (Stanbio Labs). To quantify CYP450 activity, at 48 hours after small molecule exposure, cultures were incubated with substrates (coumarin from Sigma for CYP2A6, luciferin-IPA from Promega for CYP3A4) for 4 hours at 37° C. Incubation medium was collected and metabolite concentration quantified via luminescence, or fluorescence after hydrolization of potential metabolite conjugates by β-glucuronidase/arylsulfatase (Roche, Ind.).
To characterize the effects of FPH1 and FPH2 outside of the screening platform, human primary hepatocytes were seeded at a density of ˜20,000 cells/cm^2, into standard 12-well tissue culture plates on top of a feeder layer of growth-arrested J2-3T3s. These cells were cultured for 7 days, during which time a single compound/FPH was supplemented into the media on days 1 and 5 at a concentration of 20 μM. Treated hepatocyte colonies increased in size over time, with more hepatocytes populating each colony (FIG. 2D, 2E).
To characterize the degree of proliferation and to obtain a doubling time, cells were counted and fluorescence-activated cell sorting (FACS) was performed (FIG. 2H). For cell counting, FPH-treated cells were trypsinized after seven days in culture. The number of cells was quantified using an automated cell counter. The number of hepatocytes was obtained by subtracting the number of fibroblasts from the total number of cells found in the corresponding co-culture. For FACS analysis, growth arrested J2-3T3s were labeled with CM-DiI prior to initiation of co-culture so that hepatocytes can be identified via negative selection. To enable cell counting during FACS, each sample was supplemented with fluorescent counting beads. […] Over 7 days, FPH1 induced hepatocyte doublings at a rate that is consistent with reported liver regeneration kinetics in vivo.
To assess the phenotype of the treated hepatocytes, imaging, biochemical analyses and gene expression profiling were performed. […] Albumin secretion and urea synthesis, a surrogate marker of nitrogen metabolism, were both stable throughout FPH treatment (FIG. 3A top and middle). Metabolic functions were assessed via examinations of cytochrome P450 (CYP450) activity and canalicular transport. […] Gene expression profiling confirmed that there are no significant differences between FPH-treated and untreated hepatocytes (FIG. 3C).

The subject of data set [3] is primary human hepatocytes. Briefly: Expansion of primary human hepatocytes from six additional cell sources (Ki67/albumin staining, FACS). Type of data set: cell-based. The procedure: On day seven, the number of hepatocytes was quantified by FACS analysis (FIG. 6B). Day one untreated controls was added to the bar graph for reference.
The next data set concerns the target CK1 γ2 (Homo sapiens, UniProt P78368). Briefly: Kinome analysis (panel of kinases). Type of data set: biochemical. The procedure:
(§1) Selected compounds of the invention (FPH1 and FPH2; both at 1 μM concentration) were screened against a panel of kinases (FIG. 17).

A further data set has as its target EphB4 (Homo sapiens, UniProt P54760). Briefly: Kinome analysis (panel of kinases). Type of data set: biochemical. As to the method: as §1
Another data set addresses FMS (Homo sapiens, UniProt P07333). Briefly: Kinome analysis (panel of kinases). Type of data set: biochemical. As to the method:
as §1

For the next data set, the target named is GRK1 (Homo sapiens, UniProt Q15835). Kind of data set: Kinome analysis (panel of kinases). Type of data set: biochemical. As to the method:
as §1

For a further data set, the target named is IGF-1R (Homo sapiens, UniProt P08069). Briefly: Kinome analysis (panel of kinases). Type of data set: biochemical. The procedure:
as §1

The target in the next data set is KDR (Homo sapiens, UniProt P35968). Briefly: Kinome analysis (panel of kinases). In kind it is biochemical. As to the method:
as §1

The next data set deals with MAPKAP-KII (Homo sapiens, UniProt P49137). Briefly: Kinome analysis (panel of kinases). In kind it is biochemical. As to the method:
as §1

Another data set has as its target MAPKAPKV (PRAK) (Homo sapiens, UniProt Q8IW41). Kind of data set: Kinome analysis (panel of kinases). In kind it is biochemical. Conditions: read-out: MAPKAPKV (PRAK) inhibition. The procedure:
as §1

The target of the next data set is MSSK1 (Homo sapiens, UniProt Q9UPE1). Briefly: Kinome analysis (panel of kinases). Type of data set: biochemical. As to the method:
as §1

For a further data set, the target named is PAK5 (Homo sapiens, UniProt Q9P286). Kind of data set: Kinome analysis (panel of kinases). Type of data set: biochemical. The procedure:
as §1

The test system of the next data set is PI3KCγ. Briefly: Kinome analysis (panel of kinases). In kind it is biochemical. The following applies: 1 μM. The procedure:
as §1

In a further data set the target is Pim1 (Homo sapiens, UniProt P11309). Kind of data set: Kinome analysis (panel of kinases). In kind it is biochemical. The procedure:
as §1

The target of the next data set is SAPK4 (Homo sapiens, UniProt O15264). Briefly: Kinome analysis (panel of kinases). Type of data set: biochemical. The procedure: as §1
For another data set, the target named is eEF-2K (Homo sapiens, UniProt O00418). Kind of data set: Kinome analysis (panel of kinases). Type of data set: biochemical. As to the method: as §1

Chain of IGF-1R (P08069 31-1367, species assumed): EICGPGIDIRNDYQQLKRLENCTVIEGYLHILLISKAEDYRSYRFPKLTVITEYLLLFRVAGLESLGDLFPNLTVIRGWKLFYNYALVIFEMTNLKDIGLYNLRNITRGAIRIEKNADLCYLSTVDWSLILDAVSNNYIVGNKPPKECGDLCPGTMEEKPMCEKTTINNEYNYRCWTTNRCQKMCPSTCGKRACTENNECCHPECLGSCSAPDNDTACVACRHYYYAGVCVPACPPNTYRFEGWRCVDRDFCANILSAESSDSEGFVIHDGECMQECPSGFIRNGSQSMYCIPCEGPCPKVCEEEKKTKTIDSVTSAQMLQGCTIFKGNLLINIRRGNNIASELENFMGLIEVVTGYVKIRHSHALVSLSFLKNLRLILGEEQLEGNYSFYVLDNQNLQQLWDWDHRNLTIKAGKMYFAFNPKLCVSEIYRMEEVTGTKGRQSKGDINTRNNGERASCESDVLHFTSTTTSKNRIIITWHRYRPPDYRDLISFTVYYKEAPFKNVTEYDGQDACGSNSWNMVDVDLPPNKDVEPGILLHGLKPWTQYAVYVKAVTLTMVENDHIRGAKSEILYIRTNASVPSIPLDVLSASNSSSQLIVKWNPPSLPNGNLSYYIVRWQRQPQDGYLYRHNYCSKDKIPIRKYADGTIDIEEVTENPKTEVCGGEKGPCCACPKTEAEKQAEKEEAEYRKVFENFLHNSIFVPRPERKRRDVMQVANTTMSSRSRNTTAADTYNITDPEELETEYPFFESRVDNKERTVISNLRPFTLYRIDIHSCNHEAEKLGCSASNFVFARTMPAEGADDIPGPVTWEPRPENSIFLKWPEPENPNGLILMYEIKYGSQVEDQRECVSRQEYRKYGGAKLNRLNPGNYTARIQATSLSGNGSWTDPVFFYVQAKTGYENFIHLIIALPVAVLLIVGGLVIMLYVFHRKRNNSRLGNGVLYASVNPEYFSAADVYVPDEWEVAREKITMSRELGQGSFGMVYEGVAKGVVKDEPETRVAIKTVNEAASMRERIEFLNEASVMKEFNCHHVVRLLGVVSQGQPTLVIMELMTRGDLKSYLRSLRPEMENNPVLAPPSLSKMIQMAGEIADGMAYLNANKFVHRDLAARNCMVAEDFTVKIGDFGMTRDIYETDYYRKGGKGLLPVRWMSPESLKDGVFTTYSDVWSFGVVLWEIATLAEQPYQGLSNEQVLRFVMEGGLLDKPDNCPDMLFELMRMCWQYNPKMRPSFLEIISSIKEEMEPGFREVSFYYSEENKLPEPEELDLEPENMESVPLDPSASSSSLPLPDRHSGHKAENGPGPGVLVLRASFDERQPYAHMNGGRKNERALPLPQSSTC
Chain of FMS (P07333 20-972, species assumed): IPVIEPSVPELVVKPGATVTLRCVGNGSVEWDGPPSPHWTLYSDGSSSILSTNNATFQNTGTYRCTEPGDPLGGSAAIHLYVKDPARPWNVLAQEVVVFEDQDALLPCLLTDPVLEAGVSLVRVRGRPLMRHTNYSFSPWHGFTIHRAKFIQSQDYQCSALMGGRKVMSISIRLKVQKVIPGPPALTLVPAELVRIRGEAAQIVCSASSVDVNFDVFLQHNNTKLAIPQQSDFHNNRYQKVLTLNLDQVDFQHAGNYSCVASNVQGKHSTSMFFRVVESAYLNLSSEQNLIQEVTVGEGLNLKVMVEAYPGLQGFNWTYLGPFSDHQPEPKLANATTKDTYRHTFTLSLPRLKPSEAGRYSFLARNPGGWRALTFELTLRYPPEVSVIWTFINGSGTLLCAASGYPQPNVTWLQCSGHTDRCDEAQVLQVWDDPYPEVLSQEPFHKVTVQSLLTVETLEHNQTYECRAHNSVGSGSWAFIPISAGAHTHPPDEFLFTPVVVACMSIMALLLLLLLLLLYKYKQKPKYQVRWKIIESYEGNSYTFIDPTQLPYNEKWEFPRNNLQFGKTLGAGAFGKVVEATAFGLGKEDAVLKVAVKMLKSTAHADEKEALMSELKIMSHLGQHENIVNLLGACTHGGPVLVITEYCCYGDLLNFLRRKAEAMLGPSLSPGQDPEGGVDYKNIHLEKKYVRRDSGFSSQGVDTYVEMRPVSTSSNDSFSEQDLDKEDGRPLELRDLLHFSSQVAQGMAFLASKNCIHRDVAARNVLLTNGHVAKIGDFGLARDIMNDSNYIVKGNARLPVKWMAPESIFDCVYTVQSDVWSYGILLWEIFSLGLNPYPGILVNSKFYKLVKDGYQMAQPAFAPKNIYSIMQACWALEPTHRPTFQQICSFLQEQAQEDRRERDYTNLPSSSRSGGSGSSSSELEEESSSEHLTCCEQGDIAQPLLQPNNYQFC
Chain of GRK1 (Q15835 whole entry, species assumed): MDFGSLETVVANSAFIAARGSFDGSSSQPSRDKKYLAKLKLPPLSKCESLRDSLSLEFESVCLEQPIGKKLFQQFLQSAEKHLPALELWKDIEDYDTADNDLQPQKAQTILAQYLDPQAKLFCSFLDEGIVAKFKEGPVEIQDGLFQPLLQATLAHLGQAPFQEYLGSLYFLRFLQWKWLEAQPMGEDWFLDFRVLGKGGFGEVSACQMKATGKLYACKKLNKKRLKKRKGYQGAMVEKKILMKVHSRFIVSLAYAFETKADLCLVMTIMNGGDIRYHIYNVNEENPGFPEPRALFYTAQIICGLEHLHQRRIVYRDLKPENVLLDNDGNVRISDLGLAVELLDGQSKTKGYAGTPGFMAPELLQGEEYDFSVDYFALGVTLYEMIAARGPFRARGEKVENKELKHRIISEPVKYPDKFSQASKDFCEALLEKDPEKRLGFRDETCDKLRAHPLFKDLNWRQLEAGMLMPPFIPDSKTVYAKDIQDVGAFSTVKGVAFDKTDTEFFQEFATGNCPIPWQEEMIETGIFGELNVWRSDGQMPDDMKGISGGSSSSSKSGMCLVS
Chain of MAPKAP-KII (P49137 whole entry): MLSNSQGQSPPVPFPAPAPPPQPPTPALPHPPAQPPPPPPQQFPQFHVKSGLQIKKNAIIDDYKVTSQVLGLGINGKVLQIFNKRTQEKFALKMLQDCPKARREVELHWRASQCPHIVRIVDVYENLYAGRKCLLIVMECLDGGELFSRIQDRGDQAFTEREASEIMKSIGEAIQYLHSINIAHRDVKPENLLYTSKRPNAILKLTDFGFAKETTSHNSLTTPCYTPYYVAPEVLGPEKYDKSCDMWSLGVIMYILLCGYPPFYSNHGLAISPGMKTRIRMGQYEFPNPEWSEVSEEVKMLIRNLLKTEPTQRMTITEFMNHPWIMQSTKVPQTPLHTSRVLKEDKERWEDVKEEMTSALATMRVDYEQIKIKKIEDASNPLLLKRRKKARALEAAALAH
Chain of Pim1 (P11309 whole entry, species assumed): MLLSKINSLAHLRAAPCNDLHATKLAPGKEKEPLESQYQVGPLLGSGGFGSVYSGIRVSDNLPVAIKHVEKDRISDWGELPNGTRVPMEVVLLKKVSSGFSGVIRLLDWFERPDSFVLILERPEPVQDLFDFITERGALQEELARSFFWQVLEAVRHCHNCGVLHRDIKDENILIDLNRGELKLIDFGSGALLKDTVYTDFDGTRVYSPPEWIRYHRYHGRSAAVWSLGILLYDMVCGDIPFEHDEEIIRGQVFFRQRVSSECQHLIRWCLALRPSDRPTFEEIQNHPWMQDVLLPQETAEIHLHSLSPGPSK
Chain of KDR (P35968 20-1356, species assumed): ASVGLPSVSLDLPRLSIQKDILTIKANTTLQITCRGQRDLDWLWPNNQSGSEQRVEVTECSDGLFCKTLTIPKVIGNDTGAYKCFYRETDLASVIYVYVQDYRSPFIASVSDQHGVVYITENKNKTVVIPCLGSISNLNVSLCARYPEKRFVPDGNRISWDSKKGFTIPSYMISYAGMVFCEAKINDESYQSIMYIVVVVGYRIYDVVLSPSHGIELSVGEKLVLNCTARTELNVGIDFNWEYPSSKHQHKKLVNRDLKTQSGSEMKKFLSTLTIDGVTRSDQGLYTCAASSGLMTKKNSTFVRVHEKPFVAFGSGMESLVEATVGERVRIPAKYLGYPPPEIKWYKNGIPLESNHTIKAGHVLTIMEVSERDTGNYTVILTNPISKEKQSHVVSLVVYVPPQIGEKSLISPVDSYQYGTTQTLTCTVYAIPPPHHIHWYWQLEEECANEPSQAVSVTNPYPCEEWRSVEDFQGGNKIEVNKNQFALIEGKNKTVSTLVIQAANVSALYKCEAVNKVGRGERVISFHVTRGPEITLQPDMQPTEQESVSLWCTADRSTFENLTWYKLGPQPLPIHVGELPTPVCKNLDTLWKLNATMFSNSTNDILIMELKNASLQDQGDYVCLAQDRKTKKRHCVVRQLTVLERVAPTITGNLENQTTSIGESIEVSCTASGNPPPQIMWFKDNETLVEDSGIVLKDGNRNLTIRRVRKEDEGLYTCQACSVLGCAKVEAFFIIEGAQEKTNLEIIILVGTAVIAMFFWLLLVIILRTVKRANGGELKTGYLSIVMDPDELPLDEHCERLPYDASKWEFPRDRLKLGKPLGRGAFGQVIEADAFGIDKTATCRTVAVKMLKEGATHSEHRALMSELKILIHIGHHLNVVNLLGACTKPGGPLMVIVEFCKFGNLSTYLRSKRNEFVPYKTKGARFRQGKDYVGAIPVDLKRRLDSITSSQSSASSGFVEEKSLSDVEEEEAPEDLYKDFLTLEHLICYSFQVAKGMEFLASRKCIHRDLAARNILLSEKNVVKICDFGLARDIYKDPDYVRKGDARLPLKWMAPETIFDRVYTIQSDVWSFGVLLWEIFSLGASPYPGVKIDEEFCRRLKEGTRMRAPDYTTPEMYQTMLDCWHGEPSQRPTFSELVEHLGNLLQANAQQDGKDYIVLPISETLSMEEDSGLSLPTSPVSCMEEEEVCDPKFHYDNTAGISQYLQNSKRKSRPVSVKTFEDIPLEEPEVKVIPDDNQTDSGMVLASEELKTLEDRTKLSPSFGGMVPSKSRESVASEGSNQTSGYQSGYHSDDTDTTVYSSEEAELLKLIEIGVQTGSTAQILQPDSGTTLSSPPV

On to `CCn1cc(NC(=S)Nc2cc(Cl)ccc2OC)c(C(N)=O)n1` [FPH1, 4-(3-(5-chloro-2-methoxyphenyl)thioureido)-1-ethyl-1H-pyrazole-3-carboxamide], for which, in [1], the “number of nuclei undergoing mitosis” value is given as “elevated”. Also, in [1] (15 μM, 48 hours), the “increase in hepatocyte nuclei numbers during primary screening” value is given as 1.5 ×. For the same molecule, the “increase in the area of albumin-positive colonies” value in [2] (20 μM on days 1 and 5, 7 days culture) is “up to 6.6 fold”. For the same molecule, the “degree of proliferation (cell counting, FACS)” value in data set [2] (7 days) is “strongest proliferation inducer”. Besides, the “number of hepatocytes by FACS” value in data set [3] (day seven, all donors) is “increase”. Further, in data set [3] (six additional cell sources, six days in culture), the “Ki67 staining co-localized with albumin labeled hepatocytes” value is recorded as “increased”. Besides, the inhibition at 1 µM is 6.7 to 18.4% against CK1 γ2; 6.7 to 18.4% against EphB4; 23% at FMS; 6.7 to 18.4% at GRK1; 21% against IGF-1R; 6.7 to 18.4% against KDR. The inhibition at 1 µM against MAPKAP-KII, at MAPKAPKV (PRAK), against MSSK1, against PAK5, at Pim1 and against SAPK4 was 6.7 to 18.4% in each case. On eEF-2K, this molecule had an inhibition at 1 µM of 6.7 to 18.4%. For the same molecule, the remaining activity at 1 µM on FMS was 77%; at IGF-1R, 79%. Also, in the data set with PI3KCγ, the PI3KCγ inhibition is reported as 6.7-18.4%.
